Experimental data: patent US11214625B2, “Application of PCSK9 inhibitors in the preparation of drugs for the treatment of inflammatory immune diseases” (priority 2015, dated 2022)
Entries after “also recorded” stand apart in the source; their conditions may differ.

What was measured:
[1] = system: IMQ induced psoriasis-like lesions in BALB/c mice; assay: Subcutaneous injection in mice with IMQ induced psoriasis-like skin lesions; assay type: in vivo; conditions: for adverse reactions / therapeutic effect compared between groups: subcutaneous injection; for erythema, scales and infiltration in the back coating area: subcutaneous on first day (inhibitor 8 mg/kg, antibody 10 mg/kg), after 6 days of IMQ; for score of erythema, scales, infiltration and total score: subcutaneous, daily scoring during 6 days of IMQ
Method: (§1) The PCSK9 monoclonal antibody used for this example is Evolocumab. 40 SPF female BALB/c mice aged 6-8 weeks were randomly divided into normal control group, model group, PCSK9 small molecule inhibitor group and PCSK9 monoclonal antibody group. There were 10 mice for each group. After intraperitoneal injection of pentobarbital sodium 80 mg/kg, the back was shaved with an area of about 2 cm×3 cm. The mice were feed separately for 1 day.
(1) In normal control group, Vaseline was applied locally. In model group, inhibitor group and monoclonal antibody group, 62.5 mg of 5% imiquimod cream was applied on the back every day for 6 consecutive days, photos were taken and the PASI score was evaluated.
(2) On the first day, normal saline was subcutaneously administrated to normal control group and model group, PCSK9 small molecule inhibitor was subcutaneously administrated (8 mg/kg, Purchased from Selleck Inc.) to inhibitor group, and PCSK9 monoclonal antibody was subcutaneously administrated to monoclonal antibody group (10 mg/kg, Purchased from abcam Inc.)

[2] = system: IMQ induced psoriatic lesions in BALB/c mice; assay: External (cream) use on IMQ induced psoriatic lesions of mice; assay type: in vivo; conditions: for erythema, scales and infiltration in the back of the mice / score of erythema, scales, infiltration and total score: cream 0.01% once daily; for erythema, scales and infiltration in the back of the mice: 7 days pretreatment, then 6 days with IMQ; for score of erythema, scales, infiltration and total score: daily score during 6 days of IMQ; for adverse reaction: external ointment once a day; for efficacy compared between groups: external use (ointment/cream)
Method: as §1, with “(1)” for “The PCSK9 monoclonal antibody used for this example is Evolocumab.”, “PCSK9” for “PCSK9 small molecule”
(2) In normal control group, vaseline was applied locally. In model group, small molecule inhibitor group and monoclonal antibody group, 62.5 mg of 5% imiquimod cream was applied on the back every day for 6 consecutive days, and photos were taken and the PASI score was evaluated.
(3) Pretreatment: vaseline was applied on the back skin with mics in normal control group and model group, PCSK9 small molecule inhibitor cream (0.01% concentration) was applied to inhibitor group once daily. And, PCSK9 monoclonal antibody cream (0.01% concentration) was applied to monoclonal antibody group once daily.
(4) After 7 days pretreatment, vaseline was applied on the back skin with mice in normal control group. At the same time, 62.5 mg 5% imiquimod cream was regularly applied daily on the back with mice in model group, small molecule inhibitor group and monoclonal antibody group. PCSK9 small molecule inhibitor cream or PCSK9 monoclonal antibody cream was applied after one hour. For 6 consecutive days, photos were taken and the PASI score was evaluated.

[3] = system: CD4 T cells isolated from peripheral blood of patients with psoriasis, eczema and urticaria; assay: Effect of PCSK9 protein on cytokine secretion of peripheral blood CD4+ T cells (ELISA); assay type: cell-based, human
Method: Materials: peripheral blood of 10 cases of psoriasis, 10 cases of eczema, 10 cases of urticaria, and 10 cases of normal people. ELISA kit was purchased from Raybiotech
After PBMC was isolated by Ficoll-Hypaque from human peripheral blood by density gradient centrifugation, washed with 10 times volume 1×BD beads buffer. Then 50 ul BD IMag TM CD4 beads were added to each […]. The beads were mixed well and incubated at room temperature for 30 minutes. 1 ml 1×BD magnetic bead buffer solution was added, and the cells were transferred to the round bottom tube and placed in the magnetic frame for 8 to 10 minutes. And then the supernatant was discarded and removed the test tube from the magnetic field. After resuspension of cells attached to tube wall with 1 ml 1×BD magnetic bead buffer, the tubes were placed in magnetic field for 2-4 min again. The supernatant was discarded removed it out of the magnetic field, resuspended the cells and placed the tube in the magnetic field for 2-4 min. The cells obtained from the […] can be used in subsequent experiments. BD IMag TM CD4 separation system was purchased from BD Biosciences Company.
The supernatant was collected after cell culture under different conditions. IFN-Gamma represented TH1 type cytokines, IL-4 represented TH2 type cytokines, and IL-17 represented TH17 cytokines. The detection of IFN-Gamma, IL-4, IL-17 was conducted by ELISA.

| Molecule | adverse reactions [1] | therapeutic effect compared between groups [1] | erythema, scales and infiltration in the back coating area [1] | score of erythema, scales, infiltration and total score [1] | erythema, scales and infiltration in the back of the mice [2] | score of erythema, scales, infiltration and total score [2] | adverse reaction [2] | efficacy compared between groups [2] | secretion of IL-17, IL-2 and IFN-Gamma by CD4 T cells ([3]; CD4 T cells of patients with psoriasis, eczema and urticaria, ELISA of supernatant) | expression of NFkb in CD4 T cells ([3]; especially in psoriatic patients) |
| --- | --- | --- | --- | --- | --- | --- | --- | --- | --- | --- |
| O=C(c1ccc(-n2nnc3cccnc32)cc1)N(c1ncccc1Cl)C1CCCNC1 (stereo not drawn) [PCSK9 small molecule inhibitor] | no obvious adverse reactions | better than that of PCSK9 monoclonal antibody group; also recorded: significantly better than that of control group | only mild erythema, scales and infiltration | significantly lower than that of PCSK9 monoclonal antibody group; also recorded: reduce | only slight erythema, scales and infiltration | significantly lower than that in PCSK9 monoclonal antibody group; also recorded: significantly reduce | no obvious adverse reaction | better than that of PCSK9 monoclonal antibody group; also recorded: significantly better than that of control group |  |  |
| PCSK9 protein: PCSK9 protein added to CD4 T cells of patients |  |  |  |  |  |  |  |  | significantly promote | increased |
| PCSK9 monoclonal antibody: PCSK9 monoclonal antibody used for Examples 6 and 7 is Evolocumab; SEQ ID NO:3-6 (antibody, chains of the INN, looked up, V domains shown) VH: EVQLVQSGAEVKKPGASVKVSCKASGYTLTSYGISWVRQAPGQGLEWMGWVSFYNGNTNYAQKLQGRGTMTTDPSTSTAYMELRSLRSDDTAVYYCARGYGMDVWGQGTTVTVSS VL: ESALTQPASVSGSPGQSITISCTGTSSDVGGYNSVSWYQQHPGKAPKLMIYEVSNRPSGVSNRFSGSKSGNTASLTISGLQAEDEADYYCNSYTSTSMVFGGGTKLTVL | no obvious adverse reactions | significantly better than that of control group | only mild erythema, scales and infiltration | reduce | only slight erythema, scales and infiltration | significantly reduce | no obvious adverse reaction | significantly better than that of control group |  |  |
